{"source": "patent US20100196308A1", "about": "“VITAMIN D3 AND ANALOGS THEREOF FOR ALLEVIATING SIDE EFFECTS ASSOCIATED WITH CHEMOTHERAPY” (priority 2009, published 2010)", "key": {"bone marrow progenitors": {"tested_on": "bone marrow progenitors", "assay": "Bone marrow cultures (colony counts) from chemotherapy-treated chloroleukemic rats", "procedure": "To assay the Colony-Forming Activity of bone marrow progenitors and MIAC51 cells, bone marrow cells are obtained as previously described (Jimenez and Yunis, 1988), and are washed with serum free DMEM. Cells are then suspended to a concentration of 1×10^6/mL and layered onto a gradient for centrifugation for 40 minutes at 400 g. The pellet found between the medium and gradient is then carefully aspirated and washed in serum free DMEM two times. Finally, a cell suspension containing 1×10^5 cells/mL is prepared in DMEM supplemented with 10% fetal bovine serum, and incubated in tissue culture plates for 3 hours. The non-adherent cells are aspirated and transferred to semi-solid agar culture plates.\nTo prepare semi-solid agar medium, powdered MEM is reconstituted in tissue-culture grade water to a concentration of 2×. Agar (0.3%) is then added and the mixture is boiled until the agar is fully dissolved (Perkins and Yunis, 1986). The medium is cooled to 37° C. and essential amino acids which might have been depleted during the boiling process are then added. The semi-solid medium is then distributed onto multi-well clusters, filling one well with tissue culture grade water to avoid further evaporation. At this point, G- or GM-CSF are added following manufacturer's procedure, and the bone marrow cell suspension or MIAC51 cells are added by careful pipetting in order to avoid bubbles. Colonies are counted 7 days later.\nBone marrow cultures were performed on days 22, 25 and 32. On day 32, a complete leukocyte count was performed in all animals and those who were positive for MIAC51 were sacrificed."}, "[1]": {"assay": "Calcium levels in chemotherapy-treated chloroleukemic rats", "source_text": "On days 22, 26, 49 and 53, blood from 3 animals is collected by cardiac puncture. All blood samples are collected in a vial for analysis of calcium levels. All animals used for bone marrow cultures are anesthetized and exsanguinated prior to obtaining the bone marrow."}, "[2]": {"tested_on": "Peripheral circulating progenitor stem cells", "assay": "Colony formation assay in semi-solid agar medium with GM-CSF and G-CSF", "format": "cell-based, human", "conditions": "Group 2: 0.05 μg/mL 1,25(OH)2D3 for 24 hours, no 4-HC; mean ± SD, quadruplicates", "source_text": "Tissue culture grade agar, fetal calf serum (FCS), and powdered Dulbecco's Modified Eagle's Medium (DMEM) were obtained from Invitrogen (Carlsbad, Calif.). Peripheral circulating progenitor stem cells were obtained by venipuncture of the saphenous vein of a healthy donor into sodium heparin vacutainers (Becton, Dickinson and Company, Franklyn Lakes N.J.). The buffy coat was obtained by gradient centrifugation using histopaque 1077 as per manufacturer's instructions. Cells were washed twice with RMPI 1640 supplemented with 10% fetal calf serum (Invitrogen). […] Cells were cultured for 14 days in a 5% CO2 incubator, with 100% humidity at 37° C. At the end of the culture period, colonies (clusters of 50 or more cells) were counted using an inverted microscope by two independent viewers. Peripheral stem cells were randomized into 4 groups at a concentration of 5×10^5 cells/mL in DMEM supplemented with 10% fetal calf serum. Group 1 was an untreated control, group 2 was incubated for 24 hours with 0.05 μg/mL of 1,25(OH)2D3, group 3 was incubated for 24 hours with 0.05 μg/mL of 1,25(OH)2D3, group 4 was untreated. Cells were washed with DMEM 10% fetal calf serum. Groups 3 and 4 were then incubated with 25 μg/mL of 4-HC for 20 hours. Subsequently, all groups were washed twice as previously described. Cells were then plated in semi-solid agar medium as described above."}, "[3]": {"assay": "Viability of myeloid cells by trypan blue exclusion", "format": "cell-based", "conditions": "human, 24-hour exposure, RPMI 1640 with 10% fetal calf serum (FIG. 2)", "procedure": "Varying doses of 1,25(OH)2D3 were applied to the myeloid cells. A graph of the effects of 1,25(OH)2D3 on myeloid cells is provided as FIG. 2. The viability of the myeloid cells was determined by trypan blue exclusion after a 24-hour exposure to varying doses of 1,25(OH)2D3. For these experiments, 2.5×10^5 cells/mL were incubated with different doses of 1,25(OH)2D3 (0.01 μg/mL, 0.1 μg/mL, 0.5 μg/mL, 0.75 μg/mL, 1 μg/mL, and 10 μg/mL) for 24 hours in RPMI 1640 supplemented with 10% fetal calf serum."}, "[4]": {"tested_on": "Long Evans rats injected with MIAC51", "assay": "Absolute neutrophil counts in chloroleukemic rats under chemotherapy regimens", "conditions": "for Nadir ANC without calcitriol treatment: chemotherapy + vehicle", "procedure": "For the first cycle of experiments, 15-day old Long Evans rats were injected with MIAC51. […] Starting on day 20 through 32, complete granulocyte counts were then performed by puncturing the tail vein with a 27 gauge syringe while animals were manually restrained.\nNeutrophil counts were measured by puncturing the tail vein as described above. […] On day 52, rats were randomized into 3 groups for each chemotherapy regimen."}, "MIAC51": {"tested_on": "MIAC51", "conditions": "stated in the power analysis of Example 2", "experimental": "Sprague Dawley rats (10-day old rat pups, preferably of natural litters) are used in this study. […] Thus, in rats the onset of neutropenia as judged by the nadir of ANC has been well characterized.\nTo obtain a power of 0.8 and a=0.05 with an absolute difference of 20%, 36 animals per group may be needed. […] According to power analysis, the minimum sample size to achieve statistical significance is 36 animals. Therefore, 4 more animals are added to each group to account for model attrition rate of 10%."}}, "data": [{"compound": "C=C1/C(=C\\C=C2/CCC[C@]3(C)[C@@H]([C@H](C)CCCC(C)(C)O)CC[C@@H]23)C[C@@H](O)C[C@@H]1O", "note": "[calcitriol, 1,25-dihydroxyvitamin D3]", "values": [{"measurement": "colony count of bone marrow cultures", "setting": "bone marrow progenitors; day 22, first cycle, cyclophosphamide and calcitriol (FIG. 4a)", "value": "56±17", "unit": "colonies"}, {"measurement": "colony count of bone marrow cultures", "setting": "bone marrow progenitors; day 25, first cycle, cyclophosphamide and calcitriol (FIG. 5a)", "value": "80±15", "unit": "colonies"}, {"measurement": "colony count of bone marrow cultures", "setting": "bone marrow progenitors; day 40 (so in the source), second cycle, cyclophosphamide and calcitriol", "value": "82±25", "unit": "colonies"}, {"measurement": "colony count of bone marrow cultures", "setting": "bone marrow progenitors; day 52, second cycle, cyclophosphamide and calcitriol", "value": "86±25", "unit": "colonies"}, {"measurement": "hypercalcemia", "setting": "[1]; rat, in vivo", "value": "did not induce hypercalcemia"}, {"measurement": "Colony Counts at 14 Days", "setting": "[2]", "value": "48 ± 6"}, {"measurement": "viability at 24 h, 0.05 μg/mL", "setting": "[3]", "value": 90, "unit": "%"}, {"measurement": "Nadir ANC with calcitriol treatment", "setting": "[4]; first cycle, 10 μg calcitriol pulse, cyclophosphamide (150 mg/kg) regimen", "value": "2154 ± 147/mm^3"}, {"measurement": "Nadir ANC with calcitriol treatment", "setting": "[4]; first cycle, 10 μg calcitriol pulse, cyclophosphamide and doxorubicin (100 mg/kg, 25 mg/kg) regimen", "value": "2365 ± 145/mm^3"}, {"measurement": "Nadir ANC with calcitriol treatment", "setting": "[4]; first cycle, 10 μg calcitriol pulse, cyclophosphamide, doxorubicin and paclitaxel (100, 25, 10 mg/kg) regimen", "value": "2365 ± 125/mm^3"}, {"measurement": "effect on nadir ANC", "setting": "[4]; first cycle, all three chemotherapy regimens", "value": "significantly decreases the nadir ANC"}, {"measurement": "Nadir ANC with calcitriol treatment", "setting": "[4]; second cycle, 20 μg calcitriol, cyclophosphamide and doxorubicin regimen", "value": "2417 ± 136/mm^3"}, {"measurement": "Nadir ANC with calcitriol treatment", "setting": "[4]; second cycle, 20 μg calcitriol, cyclophosphamide regimen", "value": "2451 ± 235/mm^3"}, {"measurement": "Nadir ANC with calcitriol treatment", "setting": "[4]; second cycle, 20 μg calcitriol, cyclophosphamide, doxorubicin and paclitaxel regimen", "value": "2364 ± 136/mm^3"}, {"measurement": "protection against chemotherapy-induced neutropenia", "setting": "[4]; second cycle, all three chemotherapy regimens", "value": "significantly protects against chemotherapy-induced neutropenia in all three chemotherapy regimens"}]}, {"compound": "Cyclophosphamide", "values": [{"measurement": "colony count of bone marrow cultures", "setting": "bone marrow progenitors; day 22, first cycle, cyclophosphamide and vehicle", "value": "5±1", "unit": "colonies"}, {"measurement": "colony count of bone marrow cultures", "setting": "bone marrow progenitors; day 25, first cycle, cyclophosphamide and vehicle", "value": "12±4", "unit": "colonies"}, {"measurement": "colony count of bone marrow cultures", "setting": "bone marrow progenitors; day 40 (so in the source), second cycle, cyclophosphamide and vehicle", "value": "4.5±1", "unit": "colonies"}, {"measurement": "colony count of bone marrow cultures", "setting": "bone marrow progenitors; day 52, second cycle, cyclophosphamide-treated", "value": "7±2.5", "unit": "colonies"}, {"measurement": "Calcium Levels", "setting": "[1]; Day 22, Chemo + Vehicle", "value": "11 ± 0.3", "unit": "mg/dL"}, {"measurement": "Calcium Levels", "setting": "[1]; Day 25, Chemo + Vehicle", "value": "9.5 ± 0.2", "unit": "mg/dL"}, {"measurement": "Calcium Levels", "setting": "[1]; Day 32, Chemo + Vehicle", "value": "9.5 ± 0.5", "unit": "mg/dL"}, {"measurement": "Calcium Levels", "setting": "[1]; Day 49, Chemo + Vehicle", "value": "11 ± 0.2", "unit": "mg/dL"}, {"measurement": "Calcium Levels", "setting": "[1]; Day 52, Chemo + Vehicle", "value": "10 ± 0.5", "unit": "mg/dL"}, {"measurement": "Calcium Levels", "setting": "[1]; Day 60, Chemo + Vehicle", "value": "11 ± 0.4", "unit": "mg/dL"}, {"measurement": "Remission rate", "setting": "MIAC51", "value": "at least 20%"}, {"measurement": "Nadir ANC without calcitriol treatment", "setting": "[4]; first cycle", "value": "245 ± 25/mm^3"}, {"measurement": "Nadir ANC without calcitriol treatment", "setting": "[4]; second cycle", "value": "236 ± 32/mm^3"}]}]}
